Legend:
[1] = tested on: rabbit serum obtained by immunizing a rabbit with the SARS-CoV strain Frankfurt 1; type: binding; set-up: Binding of a rabbit serum to linear peptides / Binding of a rabbit serum to looped peptides / Rabbit serum linear peptides / Rabbit serum looped peptides / Binding of a rabbit serum to linear peptides of protein N of SARS-CoV Urbani (Rabbit serum linear peptides) / Binding of a rabbit serum to looped/cyclic peptides of protein N of SARS-CoV Urbani (Rabbit serum looped peptides): unit not given here
[2] = tested on: recombinant human anti-SARS-CoV antibody 03-018; type: binding; set-up: Binding of antibody 03-018 to linear peptides of the N protein of SARS-CoV Urbani / Binding of antibody 03-018 to looped/cyclic peptides of the N protein of SARS-CoV Urbani: unit not given here
[3] = tested on: antibodies in sera from SARS patients (sera 1a, 1b, 2, 6, 37, 62, London, SARS-yellow, SARS-green); type: binding, human; set-up: Binding of serum 6 to linear peptides of protein X1 of SARS-CoV Urbani / Binding of serum 37 to linear peptides of protein X1 of SARS-CoV Urbani / Binding of serum 6 to looped/cyclic peptide (PEPSCAN-ELISA) / Binding of serum 37 to looped/cyclic peptide (PEPSCAN-ELISA) / Binding of serum 37 to looped/cyclic peptides of protein X1 of SARS-CoV Urbani / Binding of serum 6 to linear peptides of protein X2 / Binding of serum 37 to linear peptides of protein X2 / Binding of serum 37 to looped/cyclic peptides of protein X2 of SARS-CoV Urbani / Binding of serum 6 to linear peptides of protein M of SARS-CoV Urbani / Binding of serum 37 to linear peptides of protein M of SARS-CoV Urbani / Binding of serum 6 to looped/cyclic peptides of protein M of SARS-CoV Urbani / Binding of serum 37 to looped/cyclic peptides of protein M of SARS-CoV Urbani / Binding of serum 6 to linear peptides of protein X3 of SARS-CoV Urbani / Binding of serum 37 to linear peptides of protein X3 of SARS-CoV Urbani / Binding of serum 37 to looped/cyclic peptides of protein X3 of SARS-CoV Urbani / Binding of serum 6 to linear peptides of protein X4 of SARS-CoV Urbani / Binding of serum 37 to linear peptides of protein X4 of SARS-CoV Urbani / Binding of serum 37 to looped/cyclic peptides of protein X4 of SARS-CoV Urbani / Binding of serum 6 to linear peptides of protein X5 of SARS-CoV Urbani / Binding of serum 37 to linear peptides of protein X5 of SARS-CoV Urbani / Binding of serum 37 to looped/cyclic peptides of protein X5 of SARS-CoV Urbani / Binding of serum 6 to linear peptides of protein N of SARS-CoV Urbani / Binding of serum 37 to linear peptides of protein N of SARS-CoV Urbani / Binding of serum 6 to linear peptide (PEPSCAN-ELISA) / Binding of serum 1a to looped/cyclic peptides of protein N of SARS-CoV Urbani / Binding of serum 1b to looped/cyclic peptides of protein N of SARS-CoV Urbani / Binding of serum 2 to looped/cyclic peptides of protein N of SARS-CoV Urbani / Binding of serum 6 to looped/cyclic peptides of protein N of SARS-CoV Urbani / Binding of serum 37 to looped/cyclic peptides of protein N of SARS-CoV Urbani / Binding of serum 62 to looped/cyclic peptides of protein N of SARS-CoV Urbani / Binding of serum London to looped/cyclic peptides of protein N of SARS-CoV Urbani / Binding of serum SARS-green to looped/cyclic peptides of protein N of SARS-CoV Urbani: unit not given here
[4] = tested on: control sera (pooled serum of ten healthy LUMC hospital workers; commercial negative donor pooled serum from the Dutch bloodbank); type: binding, human; set-up: Binding of Control serum LUMC to linear peptides / Binding of Control serum Blood-bank to linear peptides / Binding of Control serum LUMC to looped peptides / Binding of Control Serum Blood-Bank to Looped peptides / Binding of Control serum LUMC to linear peptides of the protein M of SARS-CoV Urbani / Binding of Control serum Blood-bank to linear peptides of the protein M of SARS-CoV Urbani / Binding of Control serum LUMC to looped peptides of the protein M of SARS-CoV Urbani / Binding of Control Serum Blood-Bank to Looped peptides of the protein M of SARS-CoV Urbani: unit not given here

| Sequence | Binding of a rabbit serum to linear peptides of protein N of SARS-CoV Urbani (Rabbit serum linear peptides) [1] | Binding of a rabbit serum to looped/cyclic peptides of protein N of SARS-CoV Urbani (Rabbit serum looped peptides) [1] | Binding of antibody 03-018 to linear peptides of the N protein of SARS-CoV Urbani [2] | Binding of antibody 03-018 to looped/cyclic peptides of the N protein of SARS-CoV Urbani [2] | Binding of serum 1a to linear peptide (PEPSCAN-ELISA) [3] | Binding of serum 1a to looped/cyclic peptides of protein N of SARS-CoV Urbani [3] | Binding of serum 1b to linear peptide (PEPSCAN-ELISA) [3] | Binding of serum 1b to looped/cyclic peptides of protein N of SARS-CoV Urbani [3] | Binding of serum 2 to linear peptide (PEPSCAN-ELISA) [3] | Binding of serum 2 to looped/cyclic peptides of protein N of SARS-CoV Urbani [3] | Binding of serum 6 to looped/cyclic peptides of protein N of SARS-CoV Urbani [3] | Binding of serum 37 to looped/cyclic peptides of protein N of SARS-CoV Urbani [3] | Binding of serum 62 to looped/cyclic peptides of protein N of SARS-CoV Urbani [3] | Binding of serum London to looped/cyclic peptides of protein N of SARS-CoV Urbani [3] | Binding of serum SARS-green to looped/cyclic peptides of protein N of SARS-CoV Urbani [3] | Binding of serum SARS-yellow to looped/cyclic peptides of protein N of SARS-CoV Urbani [3] | Binding of Control Serum Blood-Bank to Looped peptides [4] | Binding of Control serum Blood-bank to linear peptides [4] | Binding of Control serum LUMC to linear peptides [4] | Binding of Control serum LUMC to looped peptides [4] | further results |
| --- | --- | --- | --- | --- | --- | --- | --- | --- | --- | --- | --- | --- | --- | --- | --- | --- | --- | --- | --- | --- | --- |
| PKGFYAEGSRGGSQA | 0.1 | 0.1 | 0.1 | 0.2 | 0.3 | 0.3 | 0.1 | 0.3 | 0.2 | 0.3 | 0.2 | 0.4 | 0.5 | 0.3 | 0.4 | 0.2 | 0.5 | 0.8 | 0.7 | 0.5 | Binding of serum 6 to linear peptide (PEPSCAN-ELISA) [3]: 0.2; Binding of serum 37 to linear peptide (PEPSCAN-ELISA) [3]: 0.6; Binding of serum 62 to linear peptide (PEPSCAN-ELISA) [3]: 0.6; Binding of serum London to linear peptide (PEPSCAN-ELISA) [3]: 0.5; Binding of serum SARS-green to linear peptide (PEPSCAN-ELISA) [3]: 0.0; Binding of serum SARS-yellow to linear peptide (PEPSCAN-ELISA) [3]: 0.5 |
| RSAPRITFGGPTDST | 0.3 | 0.7 |  |  |  | 0.3 |  | 0.2 |  | 0.3 | 0.2 | 0.5 | 0.4 | 0.3 | 0.4 | 0.5 | 0.6 | 0.6 | 0.5 | 0.6 | Recognition of the peptide by antibody 03-018 [2]: recognized; Binding of serum 1a to linear peptides of protein N of SARS-CoV Urbani [3]: 0.2; Binding of serum 1b to linear peptides of protein N of SARS-CoV Urbani [3]: 0.1; Binding of serum 2 to linear peptides of protein N of SARS-CoV Urbani [3]: 0.1; Binding of serum 6 to linear peptides of protein N of SARS-CoV Urbani [3]: 0.1; Binding of serum 37 to linear peptides of protein N of SARS-CoV Urbani [3]: 0.6; Binding of serum 62 to linear peptides of protein N of SARS-CoV Urbani [3]: 0.6; Binding of serum London to linear peptides of protein N of SARS-CoV Urbani [3]: 0.5; Binding of serum SARS-green to linear peptides of protein N of SARS-CoV Urbani [3]: 0.4; Binding of serum SARS-yellow to linear peptides of protein N of SARS-CoV Urbani [3]: 0.5 |
| TLLPAADMDDFSRQL | 0.1 | 0.0 | 0.1 | 0.1 |  | 0.4 |  | 0.2 |  | 0.5 | 0.1 | 0.4 | 0.1 | 0.2 | 0.0 | 0.4 |  |  |  |  | Binding of serum 1a to linear peptides of protein N of SARS-CoV Urbani [3]: 0.3; Binding of serum 1b to linear peptides of protein N of SARS-CoV Urbani [3]: 0.2; Binding of serum 2 to linear peptides of protein N of SARS-CoV Urbani [3]: 0.2; Binding of serum 6 to linear peptides of protein N of SARS-CoV Urbani [3]: 0.4; Binding of serum 37 to linear peptides of protein N of SARS-CoV Urbani [3]: 1.0; Binding of serum 62 to linear peptides of protein N of SARS-CoV Urbani [3]: 0.7; Binding of serum London to linear peptides of protein N of SARS-CoV Urbani [3]: 0.6; Binding of serum SARS-green to linear peptides of protein N of SARS-CoV Urbani [3]: 0.7; Binding of serum SARS-yellow to linear peptides of protein N of SARS-CoV Urbani [3]: 0.7; Control Serum Blood-Bank Looped peptides [4]: 0.5; Control serum Blood-bank linear peptides [4]: 0.7; Control serum LUMC linear peptides [4]: 0.8; Control serum LUMC looped peptides [4]: 0.4 |
| ESKVSGKGQQQQGQT | 0.1 | 0.6 | 0.1 | 0.2 | 0.2 | 0.6 | 0.1 | 0.4 | 0.2 | 0.8 | 0.4 | 0.7 | 0.7 | 0.8 | 0.7 | 0.9 | 1.1 | 0.7 | 0.8 | 0.9 | Binding of serum 6 to linear peptide (PEPSCAN-ELISA) [3]: 0.2; Binding of serum 37 to linear peptide (PEPSCAN-ELISA) [3]: 0.6; Binding of serum 62 to linear peptide (PEPSCAN-ELISA) [3]: 0.7; Binding of serum London to linear peptide (PEPSCAN-ELISA) [3]: 0.5; Binding of serum SARS-green to linear peptide (PEPSCAN-ELISA) [3]: 0.4; Binding of serum SARS-yellow to linear peptide (PEPSCAN-ELISA) [3]: 0.7 |
